Source: patent US20250313572A1, “MACROCYCLIC MCL-1 INHIBITORS AND METHODS OF USE” (AbbVie Inc., priority 2017, published 2025)
Where two headings read alike, the source gives them in different places.

How the values were obtained:
GST-MCL-1 = GST-MCL-1 (Homo sapiens, UniProt Q07820); test: TR-FRET MCL-1 binding assay (competition with probe F-Bak)
Outline: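 Test compounds, 11 three-fold dilutions from 25 μM final, incubated 2 hours at room temperature with GST-MCL-1, F-Bak probe and Tb-anti-GST antibody. TR-FRET read at 340/35 nm excitation with 520/525 and 495/510 nm emission. Run without human serum and with 10% HS.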

[1] = tested on: NCI-H929 human multiple myeloma tumor cell line; test: NCI-H929 cell viability assay (CellTiter-Glo, 24 hours); format: cell-based; settings: Homo sapiens
[2] = tested on: AMO-1 human multiple myeloma tumor cell line; test: AMO-1 cell viability assay (CellTiter-Glo, 24 hours); format: cell-based; settings: Homo sapiens
[3] = MCL-1 Binding Ki (nM, 10% HS), in the presence of 10% HS (human serum)
[4] = without HS, read-out: MCL-1 Binding Ki
[5] = NCI-H929, 24 h, read-out: H929 Viability IC50 (μM, 10% FBS), 10% FBS, 24 hours of compound treatment
[6] = AMO1, 24 h, read-out: AMO-1 Viability IC50 (μM, 10% FBS), 10% FBS, 24 hours of compound treatment

Sequence of GST-MCL-1 (Q07820 whole entry): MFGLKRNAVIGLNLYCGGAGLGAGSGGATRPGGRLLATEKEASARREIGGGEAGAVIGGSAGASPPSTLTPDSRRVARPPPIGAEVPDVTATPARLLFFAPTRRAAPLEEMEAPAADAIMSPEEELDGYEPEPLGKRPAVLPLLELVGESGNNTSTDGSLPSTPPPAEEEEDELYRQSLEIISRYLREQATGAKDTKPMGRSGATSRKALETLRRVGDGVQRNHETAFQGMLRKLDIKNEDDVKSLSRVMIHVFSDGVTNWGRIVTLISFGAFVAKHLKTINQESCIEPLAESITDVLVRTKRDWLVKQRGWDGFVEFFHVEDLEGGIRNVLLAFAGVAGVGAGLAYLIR

Compound	Ki (GST-MCL-1; [3]) [nM]	Ki (GST-MCL-1; [4]) [nM]	IC50 [1, 5] [µM]	IC50 [2, 6] [nM]	IC50 ([1]; NCI-H929, read-out: H929 Viability IC50 (μM), 10% FBS, 24 hours of compound treatment) [µM]	IC50 ([2]; AMO1, read-out: AMO-1 Viability IC50 (μM), 10% FBS, 24 hours of compound treatment) [nM]
COCC(COC)Oc1nccc(COc2ccc3cc2C[C@H](C(=O)O)Oc2ncnc4sc(-c5ccc(F)cc5)c(c24)-c2c(C)c(Cl)c(c(Cl)c2C)O[C@H](CN2CCN(C)CC2)CO3)n1 [Example 141, (7R,16R)-19,23-dichloro-10-({2-[(1,3-dimethoxypropan-2-yl)oxy]pyrimidin-4-yl}methoxy)-1-(4-fluorophenyl)-20,22-dimethyl-16-[(4-methylpiperazin-1-yl)methyl]-7,8,15,16-tetrahydro-18,21-etheno-9,13-(metheno)-6,14,17-trioxa-2-thia-3,5-diazacyclononadeca[1,2,3-cd]indene-7-carboxylic Acid]	0.363	0.008	0.000503	0.441	–	–
Cc1c(Cl)c2c(Cl)c(C)c1-c1c(-c3ccc(F)cc3)sc3ncnc(c13)O[C@@H](C(=O)O)Cc1cc(ccc1OCc1ccnc(-c3ccc(CCN4CCOCC4)cc3)n1)OC[C@@H](CN1CCN(C)CC1)O2 [Example 142, (7R,16R)-19,23-dichloro-1-(4-fluorophenyl)-20,22-dimethyl-16-[(4-methylpiperazin-1-yl)methyl]-10-[(2-{4-[2-(morpholin-4-yl)ethyl]phenyl}pyrimidin-4-yl)methoxy]-7,8,15,16-tetrahydro-18,21-etheno-13,9-(metheno)-6,14,17-trioxa-2-thia-3,5-diazacyclononadeca[1,2,3-cd]indene-7-carboxylic Acid]	0.776	0.185	0.000156	0.0488	–	–
Cc1c(Cl)c2c(Cl)c(C)c1-c1c(-c3ccc(F)cc3)sc3ncnc(c13)O[C@@H](C(=O)O)Cc1cc(ccc1OCc1ccnc(-c3cccc(CCN4CCOCC4)c3)n1)OC[C@@H](CN1CCN(C)CC1)O2 [Example 143, (7R,16R)-19,23-dichloro-1-(4-fluorophenyl)-20,22-dimethyl-16-[(4-methylpiperazin-1-yl)methyl]-10-[(2-{3-[2-(morpholin-4-yl)ethyl]phenyl}pyrimidin-4-yl)methoxy]-7,8,15,16-tetrahydro-18,21-etheno-13,9-(metheno)-6,14,17-trioxa-2-thia-3,5-diazacyclononadeca[1,2,3-cd]indene-7-carboxylic Acid]	0.175	0.023	0.000203	0.216	–	–
Cc1c(Cl)c2c(Cl)c(C)c1-c1c(-c3ccc(F)cc3)sc3ncnc(c13)O[C@@H](C(=O)O)Cc1cc(ccc1OCc1ccnc(N3CCC(C)(N4CCOCC4)CC3)n1)OC[C@@H](CN1CCN(C)CC1)O2 [Example 144, (7R,16R)-19,23-dichloro-1-(4-fluorophenyl)-20,22-dimethyl-10-({2-[4-methyl-4-(morpholin-4-yl)piperidin-1-yl]pyrimidin-4-yl}methoxy)-16-[(4-methylpiperazin-1-yl)methyl]-7,8,15,16-tetrahydro-18,21-etheno-13,9-(metheno)-6,14,17-trioxa-2-thia-3,5-diazacyclononadeca[1,2,3-cd]indene-7-carboxylic Acid]	> 444	10.9	0.0077	1.78	–	–
Cc1c(Cl)c2c(Cl)c(C)c1-c1c(-c3ccc(F)cc3)sc3ncnc(c13)O[C@@H](C(=O)O)Cc1cc(ccc1OCc1ccnc(-c3ccc(S(=O)(=O)N4CCOCC4)cc3)n1)OC[C@@H](CN1CCN(C)CC1)O2 [Example 145, (7R,16R)-19,23-dichloro-1-(4-fluorophenyl)-20,22-dimethyl-16-[(4-methylpiperazin-1-yl)methyl]-10-({2-[4-(morpholine-4-sulfonyl)phenyl]pyrimidin-4-yl}methoxy)-7,8,15,16-tetrahydro-18,21-etheno-13,9-(metheno)-6,14,17-trioxa-2-thia-3,5-diazacyclononadeca[1,2,3-cd]indene-7-carboxylic Acid]	0.399	0.081	0.000973	0.407	–	–
CO[C@@H]1CO[C@H]2[C@@H]1OC[C@H]2Oc1nccc(COc2ccc3cc2C[C@H](C(=O)O)Oc2ncnc4sc(-c5ccc(F)cc5)c(c24)-c2c(C)c(Cl)c(c(Cl)c2C)O[C@H](CN2CCN(C)CC2)CO3)n1 [Example 146, (7R,16R)-19,23-dichloro-1-(4-fluorophenyl)-10-[(2-{[(3R,3aR,6R,6aR)-6-methoxyhexahydrofuro[3,2-b]furan-3-yl]oxy}pyrimidin-4-yl)methoxy]-20,22-dimethyl-16-[(4-methylpiperazin-1-yl)methyl]-7,8,15,16-tetrahydro-18,21-etheno-13,9-(metheno)-6,14,17-trioxa-2-thia-3,5-diazacyclononadeca[1,2,3-cd]indene-7-carboxylic Acid]	0.041	0.001	0.00408	2.23	–	–
Cc1c(Cl)c2c(Cl)c(C)c1-c1c(-c3ccc(F)cc3)sc3ncnc(c13)O[C@@H](C(=O)O)Cc1cc(ccc1OCc1ccnc(-c3cccc(CN4CCOCC4)c3)n1)OC[C@@H](CN1CCN(C)CC1)O2 [Example 147, (7R,16R)-19,23-dichloro-1-(4-fluorophenyl)-20,22-dimethyl-16-[(4-methylpiperazin-1-yl)methyl]-10-[(2-{3-[(morpholin-4-yl)methyl]phenyl}pyrimidin-4-yl)methoxy]-7,8,15,16-tetrahydro-18,21-etheno-13,9-(metheno)-6,14,17-trioxa-2-thia-3,5-diazacyclononadeca[1,2,3-cd]indene-7-carboxylic Acid]	0.098	0.002	0.000162	0.204	–	–
Cc1c(Cl)c2c(Cl)c(C)c1-c1c(-c3ccc(F)cc3)sc3ncnc(c13)O[C@@H](C(=O)O)Cc1cc(ccc1OCc1ccnc(-c3ccc(CN4CCOCC4)cc3)n1)OC[C@@H](CN1CCN(C)CC1)O2 [Example 148, (7R,16R)-19,23-dichloro-1-(4-fluorophenyl)-20,22-dimethyl-16-[(4-methylpiperazin-1-yl)methyl]-10-[(2-{4-[(morpholin-4-yl)methyl]phenyl}pyrimidin-4-yl)methoxy]-7,8,15,16-tetrahydro-18,21-etheno-13,9-(metheno)-6,14,17-trioxa-2-thia-3,5-diazacyclononadeca[1,2,3-cd]indene-7-carboxylic Acid]	0.346	0.034	0.000736	0.18	–	–
Cc1c(Cl)c2c(Cl)c(C)c1-c1c(-c3ccc(F)cc3)sc3ncnc(c13)O[C@@H](C(=O)O)Cc1cc(ccc1OCc1ccnc(-c3cccc(S(=O)(=O)N4CCOCC4)c3)n1)OC[C@@H](CN1CCN(C)CC1)O2 [Example 149, (7R,16R)-19,23-dichloro-1-(4-fluorophenyl)-20,22-dimethyl-16-[(4-methylpiperazin-1-yl)methyl]-10-({2-[3-(morpholine-4-sulfonyl)phenyl]pyrimidin-4-yl}methoxy)-7,8,15,16-tetrahydro-18,21-etheno-13,9-(metheno)-6,14,17-trioxa-2-thia-3,5-diazacyclononadeca[1,2,3-cd]indene-7-carboxylic Acid]	0.14	0.006	0.0014	0.363	–	–
Cc1c(Cl)c2c(Cl)c(C)c1-c1c(-c3ccc(F)cc3)sc3ncnc(c13)O[C@@H](C(=O)O)Cc1cc(ccc1OCc1ccnc([C@@H]3CN4CCC[C@H]4CO3)n1)OC[C@@H](CN1CCN(C)CC1)O2 [Example 150, (7R,16R)-19,23-dichloro-1-(4-fluorophenyl)-10-({2-[(3S,8aS)-hexahydro-1H-pyrrolo[2,1-c][1,4]oxazin-3-yl]pyrimidin-4-yl}methoxy)-20,22-dimethyl-16-[(4-methylpiperazin-1-yl)methyl]-7,8,15,16-tetrahydro-18,21-etheno-13,9-(metheno)-6,14,17-trioxa-2-thia-3,5-diazacyclononadeca[1,2,3-cd]indene-7-carboxylic Acid]	0.267	0.043	0.00253	1.51	–	–
Cc1c(Cl)c2c(Cl)c(C)c1-c1c(-c3ccc(F)cc3)sc3ncnc(c13)O[C@@H](C(=O)O)Cc1cc(ccc1OCc1ccnc(-c3ccc(OC(=O)N4CCOCC4)cc3)n1)OC[C@@H](CN1CCN(C)CC1)O2 [Example 151, (7R,16R)-19,23-dichloro-1-(4-fluorophenyl)-20,22-dimethyl-16-[(4-methylpiperazin-1-yl)methyl]-10-[(2-{4-[(morpholine-4-carbonyl)oxy]phenyl}pyrimidin-4-yl)methoxy]-7,8,15,16-tetrahydro-18,21-etheno-9,13-(metheno)-6,14,17-trioxa-2-thia-3,5-diazacyclononadeca[1,2,3-cd]indene-7-carboxylic Acid]	0.325	0.01	–	–	0.000735	0.303
COCCOCCOCCOCc1ccc(-c2nccc(COc3ccc4cc3C[C@H](C(=O)O)Oc3ncnc5sc(-c6ccc(F)cc6)c(c35)-c3c(C)c(Cl)c(c(Cl)c3C)O[C@H](CN3CCN(C)CC3)CO4)n2)cc1COCCOCCOCCOC [Example 152, (7R,16R)-10-({2-[3,4-bis(2,5,8,11-tetraoxadodecan-1-yl)phenyl]pyrimidin-4-yl}methoxy)-19,23-dichloro-1-(4-fluorophenyl)-20,22-dimethyl-16-[(4-methylpiperazin-1-yl)methyl]-7,8,15,16-tetrahydro-18,21-etheno-13,9-(metheno)-6,14,17-trioxa-2-thia-3,5-diazacyclononadeca[1,2,3-cd]indene-7-carboxylic Acid]	0.041	0.011	0.00593	7.32	–	–
